Key:
CaSki [1] = test: MTT cell viability (dose-dependent cytotoxicity) assay, 72 h; type: cell-based, human; details: for reduction in cell viability: CaSki
Method: (§1) Control-treated wells contained cells incubated in media with equal volumes of DMSO (0.2%). […] The media was aspirated and cells were incubated in 100 µL complete medium with 0.5 mg/mL MTT solution for 4 h in the dark to allow metabolism of MTT by cellular mitochondrial dehydrogenases. The excess MTT was aspirated and the formazan crystals formed were dissolved by the addition of 100 µL of DMSO. The absorbance of dark blue formazan was read at 570/650 nm wavelengths using a microplate reader (Bio-Rad Benchmark Plus Microplate Spectrophotometer, Hercules, CA, USA). Triplicate absorbance values were averaged and the effect of the compounds on growth inhibition was assessed as percentage cell viability as follows: […] The results were analysed using GraphPad Prism version 6.00 for Windows (GraphPad Software, La Jolla, CA, USA). […] Overall EC50 was determined by taking the average EC50 from three independent experiments.

HeLa = test: as above; type: cell-based, human
Method: as §1

MRC9 = test: MTT cell viability (cytotoxicity) assay on non-cancerous lung fibroblasts, 72 h; type: cell-based; details: Homo sapiens, MRC9; MTT, 72 h, non-cancerous lung fibroblasts; read-out: EC50 (Mean ± S.E.M.) MRC9
Method: HeLa, CaSki and MRC9 cells were plated in triplicate wells in 96-well flat-bottomed tissue culture plates (Nunc, Roskilde, Denmark) with 10^5 cells per mL in 100 μL culture media with working concentrations of diarylpentanoid treatment ranging from 1.6 to 100 μM. Control-treated wells contained cells incubated in media with equal volumes of DMSO (0.2%). Cells were treated for 72 h for dose-dependent cytotoxicity assays and at 24, 48 and 72 h for anti-proliferative (time-dependent) assays. In order to assess cell viability and anti-proliferative activity after diarylpentanoid treatment, the colorimetric 3-(4,5-dimethylthiazol-2-yl)-2,5-diphenyltetrazolium bromide (MTT) assay was performed as previously described with modifications. The media was aspirated and cells were incubated in 100 µL complete medium with 0.5 mg/mL MTT solution for 4 h in the dark to allow metabolism of MTT by cellular mitochondrial dehydrogenases. The excess MTT was aspirated and the formazan crystals formed were dissolved by the addition of 100 µL of DMSO. The absorbance of dark blue formazan was read at 570/650 nm wavelengths using a microplate reader (Bio-Rad Benchmark Plus Microplate Spectrophotometer, Hercules, CA, USA). Triplicate absorbance values were averaged and the effect of the compounds on growth inhibition was assessed as percentage cell viability as follows: (1) Percentage cell viability =Absorbance of Test − Absorbance of Blank (media only)/Absorbance of Control − Absorbance of Blank (media only) × 100 where, absorbance = optical density of sample, O.D.; control = untreated sample; test = treated sample.
The results were analysed using GraphPad Prism version 6.00 for Windows (GraphPad Software, La Jolla, CA, USA). Using percentage cell viability Equation (1), log dose–response curves were constructed, from which the half maximal effective concentration, EC50 for each replicate was determined. Overall EC50 was determined by taking the average EC50 from three independent experiments. […] (3) Selectivity Index (SX) =EC50 (MRC9)/EC50 (Cancer cell line) × 100

CaSki [2] = test: Acridine orange/ethidium bromide double staining, quantification of viable, apoptotic and necrotic cells; type: cell-based, human
Method: HeLa, 9 μM] at various time points. Each experiment included a set of untreated control cells (Media with DMSO alone). Double staining with acridine orange and ethidium bromide and consequently fluorescent microscopic analysis is an established method by which to distinguish between viable, necrotic and apoptotic cells. […] Following treatment, the cells were pelleted, washed twice in 1× PBS and resuspended in 50 μL 1× PBS. 1 μL of dye mixture (1 part 100 μg/mL acridine orange in PBS and 1 part 100 μg/mL ethidium bromide in PBS) was added to 10 μL of cell suspension and the entire volume was placed on a clean microscope slide. Cells were examined by fluorescence microscopy using the fluorescein filter (BX41, Olympus, Melville, NY, USA) and were distinguished via the morphological aspect of chromatin condensation in stained nuclei as previously established. A minimum of 200 cells were counted per sample and the percentage of cells from each population (viable, live apoptotic, dead apoptotic, necrotic) was calculated.

HPV16E6 = test: Quantitative real-time PCR of viral oncogene mRNA in CaSki cells; type: cell-based, HPV16; details: 24 h
Method: (§2) RNA extraction was performed using the Qiagen RNeasy® Mini Kit (Qiagen, Valencia, CA, USA). According to the manufacturer’s instructions, treated HeLa and CaSki cells were lysed using Buffer RLT (supplemented with β-mercaptoethanol) and centrifuged for 3 min at maximum speed. 70% ethanol was added to the lysate and placed in an RNeasy Mini spin column and spun at ≥8000× g for 15 s. Flow-through was discarded and the pellet was subjected to a series of wash steps using buffers RW1 and RPE and subsequent RNA elution. On-column RNase-Free DNase (Qiagen) treatment was incorporated into the extraction protocol to eliminate […]. Concentration and purity of extracted RNA was measured spectrophotometrically using NanoDrop 1000 (Thermo Fisher Scientific, Wilmington, DE, USA). Two μg of total RNA per 20 μL reaction was used for complementary DNA (cDNA) synthesis using a High Capacity RNA-to-cDNA kit (Applied Biosystems, Life Technologies, Foster City, CA, USA). Appropriate volumes of RNA sample were added to 10 μL 2XRT Buffer and 1 μL 20X RT Enzyme Mix and the total volume was adjusted to 20 μL using nuclease-free water. Reverse transcription was performed on the samples using the following conditions; 37 °C for 60 min and 95 °C for 5 min. The sequences used to design the primers and TaqMan® probes were obtained from previous publications, synthesized by Applied Biosystems and optimized to amplify the HPV16 and HPV18 E6 and E7 regions (sequences listed in Table 2) using the StepOnePlus™ Real-Time PCR system (Applied Biosystems). The optimized concentrations of the primers and probes used were […] respectively. Human VIC®-MGB ACTB (β-actin) was used as an endogenous control for internal normalisation and relative gene expression quantification. Each reaction was run in duplicates and used to calculate relative gene expression using the 2^−∆∆CT method. Expression is reported as fold change in the level of mRNA of treated cells relative to untreated cells, normalised to β-actin expression.

HPV16E7 = test: as above; type: cell-based, HPV16; details: 24 h
Method: as §2

Structure (SMILES): O=C(C=Cc1ccccc1O)C=Cc1ccccc1O [MS17, 1,5-bis(2-hydroxyphenyl)-1,4-pentadiene-3-one]
- reduction in cell viability (CaSki [1]; 1.6 μM, 72 h): 30%
- reduction in cell viability (CaSki [1]; 3.1 to 100 μM, 72 h): 90%
- Selective Index CaSki (CaSki [1]; EC50 (MRC9)/EC50 (CaSki) × 100): 447
- EC50 (CaSki [1]; Homo sapiens, Ca-Ski, MTT, 72 h, read-out: EC50 (Mean ± S.E.M.) CaSki): 1.03 ± 0.5 µM
- Selective Index HeLa (HeLa; EC50 (MRC9)/EC50 (HeLa) × 100): 177
- cell viability (HeLa; HeLa, 12.5 to 100 μM, 72 h): less than 10%
- EC50 (HeLa; Homo sapiens, HeLa, MTT, 72 h, read-out: EC50 (Mean ± S.E.M.) HeLa): 2.6 ± 0.9 µM
- viability at 3.1 µM (HeLa; Homo sapiens, HeLa, 3.1 μM, 72 h): 36%
- viability at 6.3 µM (HeLa; Homo sapiens, HeLa, 6.3 μM, 72 h): 14%
- EC50 (MRC9): 4.6 ± 1.2 µM
- early apoptotic cells (CaSki [2]; 2 µM, 24 h): 10%
- early apoptotic cells (CaSki [2]; 2 µM, 48 h): 20%
- early apoptotic cells (CaSki [2]; 4 µM, 24 h): 85%
- early apoptotic cells (CaSki [2]; 4 μM, 48 h): 75%
- early apoptotic cells (CaSki [2]; 6 µM, 24 h): 55%
- necrotic cells (CaSki [2]; 6 µM, 24 h): 30%
- early apoptotic cells (CaSki [2]; 6 µM, 48 h): 30%
- necrotic cells (CaSki [2]; 6 µM, 48 h): 50%
- necrotic cells (CaSki [2]; 2 and 4 µM, 24 and 48 h): ~ 10%
- viable cells (CaSki [2]; 24 h, end of dose-dependent decrease (2–6 µM)): less than 5%
- viable cells (CaSki [2]; 48 h, with increasing treatment dose (2–6 µM)): less than 5%
- inhibition of E6 oncogene expression (HPV16E6; 2 μM and 4 μM): did not show significant inhibition
- decrease in HPV16E6 expression (HPV16E6; 6 μM, vs untreated): 3 fold
- inhibition of E7 oncogene expression (HPV16E7; 2 μM and 4 μM): did not show significant inhibition
- decrease in HPV16E7 expression (HPV16E7; 6 μM, vs untreated): 3 fold
